From patent US9133235B2, “Macrocyclic antagonists of the motilin receptor for treatment of gastrointestinal dysmotility disorders” (Ocera Therapeutics, Inc., priority 2006, dated 2015)
pIC50: −log10 of the molar value. Where two headings read alike, the source gives them in different places.

Legend:
human motilin receptor = human motilin receptor (Homo sapiens, UniProt O43193); experiment: Aequorin functional assay (motilin receptor); type: cell-based; set-up: host or cells: CHO-K1 cells co-expressing Gα16 and mitochondrially targeted Aequorin; details: functional activity, antagonist testing vs motilin 0.5 nM (EC80)
Experimental: B. Aequorin Functional Assay (Motilin Receptor)
The evaluation of compounds of the invention for functional activity can be conducted according to literature methods or as described below. (Carreras, C. W.; Siani, M. A.; Santi, D. V.; Dillon, S. B. Anal. Biochem. 2002, 300, 146-151.)
• Membranes were prepared using AequoScreen™ (EUROSCREEN, Belgium) cell lines expressing the human motilin receptor (cell line ES-380-A; receptor accession #AF034632). This cell line is constructed by transfection of the human motilin receptor into CHO-K1 cells co-expressing Gα16 and the mitochondrially targeted Aequorin (Ref. #ES-WT-A5). • Motilin (Bachem, #H-4385) • Assay buffer: DMEM-F12 (Dulbeccoe's Modified Eagles Medium) with 15 mM HEPES and 0.1% BSA (pH 7.0) • Coelenterazine (Molecular Probes™, Leiden, The Netherlands) Final Test Concentrations (N=5) for Compounds: • 10, 3.16, 1.0, 0.316, 0.10 μM. Compound Handling:
Compounds were provided as dry films at a quantity of approximately 1.2 μmol in pre-formatted 96-well plates. Compounds were dissolved in 100% DMSO at a concentration of 10 mM and stored at −20° C. until further use. Daughter plates were prepared at a concentration of 500 μM in 30% DMSO with 0.1% BSA and stored at −20° C. until testing. On the test day, compounds were allowed to thaw at room temperature and than diluted in assay buffer according to the desired test concentrations. Under these conditions, the maximum final DMSO concentration in the assay was 0.6%.
Cells are collected from culture plates with Ca^2+ and Mg^2+-free phosphate buffered saline (PBS) supplemented with 5 mM EDTA, pelleted for 2 minutes at 1000×g, resuspended in assay buffer (see above) at a density of 5×10^6 cells/mL and incubated overnight in the presence of 5 μM coelenterazine. After loading, cells were diluted with assay buffer to a concentration of 5×10^5 cells/mL.
For agonist testing, 50 μL of the cell suspension was mixed with 50 μL of the appropriate concentration of test compound or motilin (reference agonist) in 96-well plates (duplicate samples). The emission of light resulting from receptor activation was recorded using the Functional Drug Screening System 6000 ‘FDSS 6000’ (Hamamatsu Photonics K. K., Japan).
For antagonist testing, an approximate EC80 concentration of motilin (i.e. 0.5 nM; 100 μL) was injected onto the cell suspension containing the test compounds (duplicate samples) 15-30 minutes after the end of agonist testing and the consequent emission of light resulting from receptor activation was measured as described in the paragraph above.
Results are expressed as Relative Light Units (RLU). Concentration response curves were analyzed using GraphPad™ Prism® (GraphPad Software, San Diego, Calif.) by non-linear regression analysis (sigmoidal dose-response) based on the equation E=Emax/(1+EC50/C)n where E is the measured RLU value at a given agonist concentration (C), Emax is the maximal response, EC50 is the concentration producing 50% stimulation and n is the slope index. For agonist testing, results for each concentration of test compound were expressed as percent activation relative to the signal induced by motilin at a concentration equal to the EC80 (i.e. 0.5 nM). For antagonist testing, results for each concentration of test compound were expressed as percent inhibition relative to the signal induced by motilin at a concentration equal to the EC80 (i.e. 0.5 nM).

CYP2C8 = biological target: T1, CYP2C8 (Homo sapiens, UniProt P10632); experiment: Cytochrome P450 inhibition, CYP2C8; type: in vitro ADME; details: Supersomes; read-out: IC50 (μM) 2C8
T1 construct: purchased BD Gentest, Becton-Dickinson (Supersomes); host or cells: insect cells (microsomes)
T1 sequence (P10632 1-490): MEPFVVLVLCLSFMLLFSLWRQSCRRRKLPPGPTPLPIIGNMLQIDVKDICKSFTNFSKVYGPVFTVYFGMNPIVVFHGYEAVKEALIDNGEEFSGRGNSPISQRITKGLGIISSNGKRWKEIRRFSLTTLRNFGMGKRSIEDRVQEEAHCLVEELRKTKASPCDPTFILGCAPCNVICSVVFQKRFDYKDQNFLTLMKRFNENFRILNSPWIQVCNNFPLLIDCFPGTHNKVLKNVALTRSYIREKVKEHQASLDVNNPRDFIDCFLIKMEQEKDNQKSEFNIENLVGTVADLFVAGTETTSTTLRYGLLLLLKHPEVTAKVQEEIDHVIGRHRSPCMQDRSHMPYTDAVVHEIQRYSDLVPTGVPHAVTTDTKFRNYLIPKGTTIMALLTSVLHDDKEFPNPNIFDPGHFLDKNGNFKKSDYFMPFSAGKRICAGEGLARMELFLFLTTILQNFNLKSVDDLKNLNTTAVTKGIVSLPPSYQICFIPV
From the text: (§1) F. Assay for Cytochrome P450 Inhibition
(§2) Cytochrome P450 enzymes are implicated in the phase I metabolism of drugs. The majority of drug-drug interactions are metabolism-based and, moreover, these interactions typically involve inhibition of cytochrome P450s. Six CYP450 enzymes (CYP1A2, CYP2C8, CYP2C9, CYP2C19, CYP2D6 and CYP3A4) appear to be commonly responsible for the metabolism of most drugs and the associated drug-drug interactions. Assays to determine the binding of compounds of the invention to the various metabolically important isoforms of cytochrome P450 metabolizing enzymes are commercially available, for example NoAb BioDiscoveries (Mississaugua, ON, Canada) and Absorption Systems (Exton, Pa., USA). As well, a number of appropriate methods have been described or reviewed in the literature. (White, R. E. Ann. Rev. Pharmacol. Toxicol. 2000, 40, 133-157; Li, A. P. Drug. Disc. Today 2001, 6, 357-366; Turpeinen, M.; Korhonen, L. E. Tolonen, A.; et al. Eur. J. Pharm. Sci. 2006, 29, 130-138.)
(§3) The concentration of the inhibitor or test compound that inhibited metabolite formation by 50% (IC50) was calculated by non-linear regression analysis of the % inhibition vs. log concentration (M) curve.

CYP3A4 = biological target: T2, CYP3A4 (Homo sapiens, UniProt P08684); experiment: Cytochrome P450 inhibition, CYP3A4; type: in vitro ADME; details: Supersomes
T2 construct: purchased BD Gentest, Becton-Dickinson (Supersomes); host or cells: insect cells (microsomes)
From the text: as §1, §2, §3

[1] = substrate BFC, read-out: IC50 (μM) 3A4 (BFC)
[2] = substrate BQ, read-out: IC50 (μM) 3A4 (BQ)

T2 sequence (P08684 whole entry): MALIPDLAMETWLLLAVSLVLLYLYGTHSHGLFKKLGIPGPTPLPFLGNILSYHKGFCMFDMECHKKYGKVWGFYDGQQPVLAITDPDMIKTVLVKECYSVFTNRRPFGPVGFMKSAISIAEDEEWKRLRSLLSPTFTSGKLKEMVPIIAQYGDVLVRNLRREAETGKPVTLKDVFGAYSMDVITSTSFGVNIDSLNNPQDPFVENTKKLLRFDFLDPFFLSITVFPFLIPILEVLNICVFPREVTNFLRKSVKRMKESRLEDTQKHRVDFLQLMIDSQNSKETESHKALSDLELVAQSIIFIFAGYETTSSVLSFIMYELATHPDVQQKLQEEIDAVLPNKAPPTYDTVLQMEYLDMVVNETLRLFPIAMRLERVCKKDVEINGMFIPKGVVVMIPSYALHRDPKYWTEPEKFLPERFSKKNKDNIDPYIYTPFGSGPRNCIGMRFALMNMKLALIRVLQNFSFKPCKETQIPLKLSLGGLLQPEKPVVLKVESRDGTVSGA
human motilin receptor, sequence (O43193 whole entry): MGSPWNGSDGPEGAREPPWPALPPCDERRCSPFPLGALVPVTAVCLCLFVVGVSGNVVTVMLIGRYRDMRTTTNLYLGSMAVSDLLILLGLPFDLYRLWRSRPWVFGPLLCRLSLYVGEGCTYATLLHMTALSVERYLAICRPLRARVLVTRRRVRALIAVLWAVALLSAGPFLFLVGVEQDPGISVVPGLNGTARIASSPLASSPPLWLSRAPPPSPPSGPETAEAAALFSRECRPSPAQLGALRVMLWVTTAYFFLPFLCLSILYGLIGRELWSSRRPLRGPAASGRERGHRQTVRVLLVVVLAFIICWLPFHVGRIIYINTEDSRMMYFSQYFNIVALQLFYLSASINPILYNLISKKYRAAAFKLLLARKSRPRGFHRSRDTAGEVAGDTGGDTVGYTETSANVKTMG

Row | pIC50 (human motilin receptor) | IC50 (CYP2C8) [µM] | IC50 (CYP3A4; [1]) [µM] | IC50 (CYP3A4; [2]) [µM] | Structure (SMILES)
1 | ≥ 8.00 |  |  |  | CC(C)[C@H]1NC(=O)[C@@H](Cc2cccc(C(F)(F)F)c2)NCCOc2ccccc2CCCNC(=O)[C@H](CN(C)C)NC1=O [Compound 502]
2 |  | > 100 | 2.37 | 10.4 | CCC[C@@H]1NC(=O)[C@@H](C(C)C)NC(=O)[C@@H](Cc2cccc(F)c2)N[C@@H](C)COc2ccccc2CCCNC1=O [Compound 551]
3 | ≥ 9.00 |  |  |  | CCC[C@@H]1NC(=O)[C@@H](C(C)C)NC(=O)[C@@H](Cc2ccc(O)c(Cl)c2)N[C@@H](C)COc2ccccc2CCCNC1=O [Compound 552]
4 |  | > 100 | 0.0192 | 3.48 | CCC[C@@H]1NC(=O)[C@@H](C(C)C)NC(=O)[C@@H](Cc2ccc(O)c(C(C)(C)C)c2)NCCOc2ccccc2CCCNC1=O [Compound 553]
